Measurements from patent US9682995B2, “Amino-substituted isothiazoles” (BAYER PHARMA AKTIENGESELLSCHAFT, priority 2013, dated 2017).

Tests used:
[1] = tested on: spindle assembly checkpoint; assay: SAC-Formation - Paclitaxel-Induced Assay; format: cell-based; settings: Homo sapiens; HeLa cells, paclitaxel 0.05 μM, 24 h, phosphorylated histone H3 on serine 10
Procedure, shortened: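 HeLa cells were plated overnight, then given paclitaxel (0.05 μM final) plus compound (0.005-20 μM, 0.5% DMSO) for 24 h at 37° C. Fixed cells were stained for phospho-histone H3 Ser10 and with Hoechst, then imaged to give mitotic index. A fall in mitotic cells marks SAC breakthrough, and values were fit with a four-parameter Hill equation.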

CDK2/CycE = CDK2/CycE (Homo sapiens (Human), UniProt P24941); assay: CDK2/CycE kinase assay (TR-FRET); format: biochemical; settings: 10 μM ATP; read-out: CDK2 avg (IC50 [mol/l])
Procedure, shortened: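 GST-tagged human CDK2 and GST-CycE from Sf9 cells (~130 ng/ml) were preincubated with compound for 15 min at 22 °C. Reaction with 10 μM ATP and 0.75 μM biotinylated peptide (final) ran 25 min at 22 °C, pH 8.0. Phospho-peptide was read by TR-FRET (665/620 nm ratio, anti-pRB antibody, Eu donor) and normalised to no-enzyme and no-inhibitor controls.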

| SMILES | IC50 [1] [µM] | IC50 (CDK2/CycE) [µM] |
| --- | --- | --- |
| CCOC(=O)c1cnc(Nc2snc(C)c2C(=O)Nc2ccc(F)c(F)c2)o1 [Example 96, Ethyl 2-({4-[(3,4-difluorophenyl)carbamoyl]-3-methyl-1,2-thiazol-5-yl}amino)-1,3-oxazole-5-carboxylate] | 1.4 | > 20 |
| COC(=O)c1cnc(Nc2snc(C)c2C(=O)Nc2ccc(F)c(F)c2)o1 [Example 97, Methyl 2-({4-[(3,4-difluoro-phenyl)carbamoyl]-3-methyl-1,2-thiazol-5-yl}amino)-1,3-oxazole-5-carboxylate] | 8.1 | > 20 |
| CCOC(=O)c1coc(Nc2snc(C)c2C(=O)Nc2ccc(F)c(F)c2)n1 [Example 98, Ethyl 2-({4-[(3,4-difluoro-phenyl)carbamoyl]-3-methyl-1,2-thiazol-5-yl}amino)-1,3-oxazole-4-carboxylate] | 7.9 | > 20 |
| CCNC(=O)c1csc(Nc2snc(C)c2C(=O)Nc2ccc(F)c(F)c2)n1 [Example 99, N-(3,4-Difluorophenyl)-5-{[4-(ethylcarbamoyl)-1,3-thiazol-2-yl]amino}-3-methyl-1,2-thiazole-4-carboxamide] | 0.3 | > 20 |
| CCOC(=O)c1coc(Nc2snc(C)c2C(=O)Nc2ccc(OC)nc2)n1 [Example 100, Ethyl 2-({4-[(6-methoxypyridin-3-yl)carbamoyl]-3 methyl-1,2-thiazol-5-yl}amino)-1,3-oxazole-4-carboxylate] | 3.4 | > 20 |
| COC(=O)c1cncc(Nc2snc(C)c2C(=O)Nc2ccc(OC)nc2)n1 [Example 101, Methyl 6-({4-[(6-methoxypyridin-3-yl)carbamoyl]-3-methyl-1,2-thiazol-5-yl}amino)pyrazine-2-carboxylate] | 1.5 | > 20 |
| Cc1nsc(Nc2nc3c(C(F)(F)F)cccc3s2)c1C(=O)Nc1ccc(Cl)c(Cl)c1 [Example 102, N-(3,4-Dichlorophenyl)-3-methyl-5-{[4-(trifluoromethyl)-1,3-benzothiazol-2-yl]amino}-1,2-thiazole-4-carboxamide] | 0.79 | > 20 |
| Cc1nsc(Nc2nc3c(C(F)(F)F)ccnc3s2)c1C(=O)Nc1ccc(Cl)c(F)c1 [Example 103, N-(4-Chloro-3-fluorophenyl)-3-methyl-5-{[7-(trifluoromethyl)[1,3]thiazolo[5,4-b]pyridin-2-yl]amino}-1,2-thiazole-4-carboxamide] | 0.82 | > 20 |
| Cc1nsc(Nc2cncc(C(=O)N(C)C)n2)c1C(=O)Nc1ccc(F)c(F)c1 [Example 104, 6-({4-[(3,4-Difluorophenyl)-carbamoyl]-3-methyl-1,2-thiazol-5-yl}amino)-N,N-dimethyl-pyrazine-2-carboxamide] | 7.5 | > 20 |
| Cc1nsc(Nc2cncc(N(C)C)n2)c1C(=O)Nc1ccc(F)c(F)c1 [Example 105, N-(3,4-Difluorophenyl)-5-{[6-(dimethylamino)pyrazin-2-yl]amino}-3-methyl-1,2-thiazole-4-carboxamide] | 20 | > 20 |
| Cc1nsc(Nc2cncc(C(=O)N3CCCC3)n2)c1C(=O)Nc1ccc(F)c(F)c1 [Example 106, N-(3,4-Difluorophenyl)-3-methyl-5-{[6-(pyrrolidin-1-ylcarbonyl)pyrazin-2-yl]amino}-1,2-thiazole-4-carboxamide] | 0.32 | > 20 |
| Cc1nsc(Nc2cncc(C(=O)N3CCOCC3)n2)c1C(=O)Nc1ccc(F)c(F)c1 [Example 107, N-(3,4-Difluorophenyl)-3-methyl-5-{[6-(morpholin-4-ylcarbonyl)pyrazin-2-yl]amino}-1,2-thiazole-4-carboxamide] | 0.21 | > 20 |
| CNC(=O)c1ccnc(Nc2snc(C)c2C(=O)Nc2ccc(F)c(F)c2)c1 [Example 108, 2-({4-[(3,4-Difluorophenyl)-carbamoyl]-3-methyl-1,2-thiazol-5-yl}amino)-N-methyliso-nicotinamide] | 20 | > 20 |
| Cc1nsc(Nc2cnc(C(=O)N(C)C)cn2)c1C(=O)Nc1ccc(F)c(F)c1 [Example 109, 5-({4-[(3,4-Difluorophenyl)carbamoyl]-3-methyl-1,2-thiazol-5-yl}amino)-N,N-dimethylpyrazine-2-carboxamide] | 1.9 | > 20 |
| Cc1nsc(Nc2ccc(C#N)cn2)c1C(=O)Nc1ccc(OC(C)C)nc1 [Example 110, 5-[(5-Cyanopyridin-2-yl)amino]-N-(6-isopropoxyridin-3-yl)-3-methyl-1,2-thiazole-4-carboxamide] | 3.8 | > 20 |
| Cc1nsc(Nc2cc(C#N)ccn2)c1C(=O)Nc1ccc(Oc2ccccc2)nc1 [Example 111, 5-[(4-Cyanopyridin-2-yl)amino]-3-methyl-N-(6-phenoxypyridin-3-yl)-1,2-thiazole-4-carboxamide] | 1.8 | > 20 |
| Cc1nsc(Nc2cnc3ccccc3n2)c1C(=O)Nc1ccc(Oc2ccccc2)nc1 [Example 112, 3-Methyl-N-(6-phenoxypyridin-3-yl)-5-(quinoxalin-2-ylamino)-1,2-thiazole-4-carboxamide] | 0.057 | > 20 |
| Cc1nsc(Nc2cnc3ccccc3n2)c1C(=O)Nc1ccc(Oc2ccc(F)cc2F)nc1 [Example 113, N-[6-(2,4-Difluorophenoxy)pyridin-3-yl]-3-methyl-5-(quinoxalin-2-ylamino)-1,2-thiazole-4-carboxamide] | 1 | > 20 |
| Cc1nsc(Nc2cc(C#N)ccn2)c1C(=O)Nc1ccc(Oc2ccc(F)cc2F)nc1 [Example 114, 5-[(4-Cyanopyridin-2-yl)amino]-N-[6-(2,4-difluorophenoxy)pyridin-3-yl]-3-methyl-1,2-thiazole-4-carboxamide] | 0.12 | > 20 |
| Cc1nsc(Nc2cnc3ccccc3n2)c1C(=O)Nc1ccc(OC2CCCCC2)nc1 [Example 115, N-[6-(Cyclohexyloxy)pyridin-3-yl]-3-methyl-5-(quinoxalin-2-ylamino)-1,2-thiazole-4-carboxamide] | 0.12 | > 20 |
| COc1ccc(Oc2ccc(NC(=O)c3c(C)nsc3Nc3cnc4ccccc4n3)cn2)cc1 [Example 116, N-[6-(4-Methoxyphenoxy)pyridin-3-yl]-3-methyl-5-(quinoxaline-2-ylamino)-1,2-thiazole-4-carboxamide] | 4.8 | > 20 |
| COc1ccc(Oc2ccc(NC(=O)c3c(C)nsc3Nc3cc(C#N)ccn3)cn2)cc1 [Example 117, 5-[(4-Cyanopyridin-2-yl)amino]-N-[6-(4-methoxyphenoxy)pyridin-3-yl]-3-methyl-1,2-thiazole-4-carboxamide] | 2 | > 20 |
| Cc1nsc(Nc2cc(C#N)ccn2)c1C(=O)Nc1ccc(OC2CCCCC2)nc1 [Example 118, 5-[(4-Cyanopyridin-2-yl)amino]-N-[6-(cyclohexyloxy)pyridin-3-yl]-3-methyl-1,2-thiazole-4-carboxamide] | 0.056 | > 20 |
| CCOc1ccc(NC(=O)c2c(C)nsc2Nc2cnc3ccccc3n2)cn1 [Example 119, N-(6-Ethoxypyridin-3-yl)-3-methyl-5-(quinoxalin-2-ylamino)-1,2-thiazole-4-carboxamide] | 2.5 | > 20 |
